Article PMC12352620, “Fragment-based discovery of dual ligand pharmacophores for lipid-sensing transcription factors for designed polypharmacology” (RSC Medicinal Chemistry, 2025)

How the values were obtained:
Format in all cases: cell-based
THRα = target: T1, THRα (Homo sapiens, UniProt P10827); assay: Gal4-hybrid reporter gene assay THRα; settings: for max. fold activation THRα: maximum reporter activation vs DMSO (0.1%) treated cells
T1 construct: expressed in transfected cells; host or cells: HEK293T
T1 sequence (P10827 128-410 isoform P10827-2 limits assumed): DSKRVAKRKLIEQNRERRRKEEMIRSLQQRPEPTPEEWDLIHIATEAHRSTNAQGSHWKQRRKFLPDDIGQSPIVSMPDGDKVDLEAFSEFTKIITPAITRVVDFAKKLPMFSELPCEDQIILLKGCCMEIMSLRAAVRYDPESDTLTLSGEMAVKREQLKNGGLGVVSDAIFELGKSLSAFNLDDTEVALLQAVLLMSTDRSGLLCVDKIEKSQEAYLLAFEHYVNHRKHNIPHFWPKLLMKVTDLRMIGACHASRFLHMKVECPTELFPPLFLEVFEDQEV
Description: (§1) NR modulation was determined as described previously[45] in Gal4 hybrid reporter gene assays in HEK293T cells (German Collection of Microorganisms and Cell Culture GmbH, DSMZ) using pFR-Luc (Stratagene, La Jolla, CA, USA; reporter), pRL-SV40 (Promega, Madison, WI, USA; internal control) and the hybrid receptor clones pFA-CMV-hTHRα-LBD,[46] pFA-CMV-hPPARγ-LBD,[47] pFA-CMV-hFXR-LBD,[48] and pFA-CMV-hRXRα-LBD,[49] coding for the hinge region and ligand binding domain of the canonical isoform of the respective NR. Cells were cultured in Dulbecco's modified Eagle's medium (DMEM), high glucose supplemented with 10% fetal calf serum (FCS), sodium pyruvate (1 mM), penicillin (100 U mL^−1), and streptomycin (100 μg mL^−1) at 37 °C and 5% CO2 and seeded in 96-well plates (3 × 10^4 cells per well). After 24 h, medium was changed to Opti-MEM without supplements and cells were transiently transfected using Lipofectamine LTX reagent (Invitrogen, Carlsbad, CA, USA) according to the manufacturer's protocol. Five hours after transfection, cells were incubated with the test compounds in Opti-MEM supplemented with penicillin (100 U mL^−1), streptomycin (100 μg mL^−1) and 0.1% DMSO for 16 h before luciferase activity was measured using the Dual-Glo Luciferase Assay System (Promega) according to the manufacturer's protocol on a Tecan Spark luminometer (Tecan Deutschland GmbH, Crailsheim, Germany). Firefly luminescence was divided by Renilla luminescence and multiplied by 1000 resulting in relative light units (RLU) to normalize for transfection efficiency and cell growth. Fold activation was obtained by dividing the mean RLU of test compound by the mean RLU of the untreated control. All samples were tested in at least three biologically independent experiments in duplicates. For dose–response curve fitting and calculation of EC50 values, the equation “[agonist] vs. response − variable slope (four parameters)” was used in GraphPad Prism (version 7.00, GraphPad Software, La Jolla, CA, USA). For selectivity profiling, the hybrid reporter gene assay was performed with Gal4 fusion receptor plasmids for RARα, PPARα, PPARδ, VDR, CAR and LXRα. The following reference agonists were used: triiodothyronine (1 μM, THR), all-trans retinoic acid (1 μM, RAR), GW7647 (1 μM, PPARα), pioglitazone (1 μM, PPARγ), L165041 (1 μM, PPARδ), calcitriol (1 μM, VDR), CITCO (1 μM, CAR), T0901317 (1 μM, LXR), GW4064 (1 μM, FXR), bexarotene (1 μM, RXR).

PPARγ = target: T2, PPARγ (Homo sapiens, UniProt P37231); assay: Gal4-hybrid reporter gene assay PPARγ; settings: mean ± S.E.M., n ≥ 3; for max. fold activation PPARγ: maximum reporter activation vs DMSO (0.1%) treated cells
T2 construct: expressed in transfected cells; host or cells: HEK293T
T2 sequence (P37231 238-503 limits assumed): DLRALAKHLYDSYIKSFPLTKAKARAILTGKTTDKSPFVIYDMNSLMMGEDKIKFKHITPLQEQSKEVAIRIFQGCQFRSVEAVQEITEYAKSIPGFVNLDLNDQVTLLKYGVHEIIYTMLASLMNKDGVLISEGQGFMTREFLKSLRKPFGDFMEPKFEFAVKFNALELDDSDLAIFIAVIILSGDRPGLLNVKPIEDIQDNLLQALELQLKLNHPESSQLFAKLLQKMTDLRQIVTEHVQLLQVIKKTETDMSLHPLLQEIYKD
Description: as §1

FXR = target: T3, FXR (Homo sapiens, UniProt Q96RI1); assay: Gal4-hybrid reporter gene assay FXR; settings: mean ± S.E.M., n ≥ 3; for EC50 / EC50 FXR: HEK293T, Gal4-hybrid reporter, Inactive = tested 1–300 μM; for max. fold activation FXR: maximum reporter activation vs DMSO (0.1%) treated cells
T3 construct: expressed in transfected cells; host or cells: HEK293T
T3 sequence (Q96RI1 262-486 limits assumed): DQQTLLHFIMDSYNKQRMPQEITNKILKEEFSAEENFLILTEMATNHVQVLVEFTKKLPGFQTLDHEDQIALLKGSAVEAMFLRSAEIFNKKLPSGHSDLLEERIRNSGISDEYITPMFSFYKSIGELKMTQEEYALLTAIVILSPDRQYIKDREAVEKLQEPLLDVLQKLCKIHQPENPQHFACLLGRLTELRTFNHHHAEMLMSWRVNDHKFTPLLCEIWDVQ
Description: as §1

RXRα = target: T4, RXRα (Homo sapiens, UniProt P19793); assay: Gal4-hybrid reporter gene assay RXRα; settings: mean ± S.E.M., n ≥ 3; for EC50 / EC50 RXRα: HEK293T, Gal4-hybrid reporter, Inactive = tested 1–300 μM; for max. fold activation RXRα: maximum reporter activation vs DMSO (0.1%) treated cells
T4 construct: expressed in transfected cells; host or cells: HEK293T
T4 sequence (P19793 227-458 limits assumed): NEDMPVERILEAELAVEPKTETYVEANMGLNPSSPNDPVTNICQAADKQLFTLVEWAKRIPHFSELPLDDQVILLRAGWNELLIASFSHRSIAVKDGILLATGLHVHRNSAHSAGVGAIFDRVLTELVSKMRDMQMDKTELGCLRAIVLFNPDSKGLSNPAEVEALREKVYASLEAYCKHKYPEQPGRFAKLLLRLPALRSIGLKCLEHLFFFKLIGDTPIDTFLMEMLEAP
Description: as §1

[1] = HEK293T, Gal4-hybrid reporter, Inactive = tested 1–300 μM, mean ± S.E.M., n ≥ 3
[2] = HEK293T, Gal4-hybrid reporter, Inactive = tested 1–300 μM

Row | Structure (SMILES) | EC50 (THRα; [1]) | max. fold activation THRα (THRα; mean ± S.E.M., n ≥ 3) | EC50 (PPARγ; [2]) | max. fold activation PPARγ (PPARγ) | EC50 (FXR) | max. fold activation FXR (FXR) | EC50 (RXRα) | max. fold activation RXRα (RXRα) | type of activity on THRα (THRα; Gal4-hybrid reporter gene assay) | remaining THRα activity (THRα; inverse agonism, % remain., mean ± S.E.M., n ≥ 3) | IC50 (THRα; inverse agonism, mean ± S.E.M., n ≥ 3) | EC50 PPARγ (PPARγ; [2]) | EC50 FXR (FXR) | EC50 RXRα (RXRα) | EC50 THRα (THRα; [1])
1 | Cc1ccccc1C(=O)/C=C/C(=O)O [4.2, (E)-4-Oxo-4-(o-tolyl)but-2-enoic acid] | 31 ± 7 µM | (2.4 ± 0.3-fold) | 32 ± 1 µM | (20 ± 1-fold) | 39 ± 3 µM | (3.8 ± 0.4-fold) | 50 ± 4 µM | (7 ± 2-fold) |  |  |  |  |  |  | 
2 | Cc1cccc(C(=O)/C=C/C(=O)O)c1 [4.3, (E)-4-Oxo-4-(m-tolyl)but-2-enoic acid] | 19 ± 8 µM | (3.1 ± 0.6-fold) | 38 ± 1 µM | (19 ± 1-fold) | 22 ± 5 µM | (3.4 ± 0.4-fold) | 30 ± 5 µM | (4.7 ± 0.5-fold) |  |  |  |  |  |  | 
3 | Cc1ccc(C(=O)/C=C/C(=O)O)cc1 [4.4, (E)-4-Oxo-4-(p-tolyl)but-2-enoic acid] | 28 ± 3 µM | (3.4 ± 0.4-fold) | 37 ± 1 µM | (17.5 ± 0.9-fold) | 27 ± 9 µM | (3.4 ± 0.7-fold) | 35 ± 1 µM | (5.3 ± 0.2-fold) |  |  |  |  |  |  | 
4 | O=C(O)/C=C/C(=O)c1ccc(Cl)cc1 [4.5, (E)-4-Oxo-4-(4-chlorophenyl)but-2-enoic acid] | 46 ± 7 µM | (7 ± 2-fold) | 30 ± 4 µM | (12 ± 2-fold) | 40 ± 3 µM | (3.1 ± 0.3-fold) | 46 ± 1 µM | (4.0 ± 0.2-fold) |  |  |  |  |  |  | 
5 | O=C(O)C(c1ccccc1)(c1ccccc1)c1ccccc1 [compound 19] |  |  |  |  |  |  |  |  | Inverse agonist | (41 ± 5% remain.) | 36 µM | Inactive | Inactive | Inactive | 
6 | O=C(O)c1ccc(OCc2ccccc2)cc1 [compound 22] | 95 ± 9 µM | (8.8 ± 0.5-fold) | 136 ± 19 µM | (28 ± 2-fold) |  |  |  |  |  |  |  |  | Inactive | Inactive | 
7 | CSc1nccn1-c1ccc(C(=O)O)cc1 [compound 30] | 185 ± 16 µM | (2.5 ± 0.4-fold) | 53 ± 5 µM | (2.4 ± 0.1-fold) | 162 ± 31 µM | (2.2 ± 0.3-fold) |  |  |  |  |  |  |  | Inactive | 
8 | O=C(O)c1ccc(Oc2ccccc2)cc1 [compound 44] | 105 ± 28 µM | (18 ± 3-fold) | 99 ± 12 µM | (38 ± 3-fold) |  |  |  |  |  |  |  |  | Inactive | Inactive | 
9 | O=C(O)c1ccc(-c2cccc(F)c2)o1 [compound 53] | 194 ± 54 µM | (5 ± 1-fold) | 126 ± 17 µM | (14 ± 1-fold) | 53 ± 10 µM | (1.9 ± 0.1-fold) | 54 ± 9 µM | (2.2 ± 0.13-fold) |  |  |  |  |  |  | 
10 | N#Cc1c(F)c(F)cc(C(=O)O)c1F [compound 58] |  |  | 39 ± 3 µM | (9.6 ± 0.5-fold) |  |  |  |  |  |  |  |  | Inactive | Inactive | Inactive
11 | CCc1c(C(=O)O)cnn1-c1ccccc1 [compound 78] | 112 ± 44 µM | (2.0 ± 0.1-fold) | 237 ± 37 µM | (6 ± 1-fold) |  |  | 166 ± 10 µM | (1.6 ± 0.1-fold) |  |  |  |  | Inactive |  | 
12 | C/C(=C\C(=O)O)c1ccc(C(F)(F)F)cc1 [compound 91] | 92 ± 29 µM | (2.7 ± 0.3-fold) | 255 ± 15 µM | (4.3 ± 0.2-fold) |  |  | 134 ± 41 µM | (1.9 ± 0.9-fold) |  |  |  |  | Inactive |  | 
